Data published in patent publication US9271978B2 (Zenith Epigenetics Corp., priority 2012, dated 2016).

Assays:
[1] = test system: human AML MV-4-11 (CRL-9591) cells; experiment: Inhibition of cell proliferation in MV4-11 cells; assay type: cell-based; design: key: Active: Compounds with an IC50 value less than 30 μM were deemed to be active.; Not Active: Compounds with an IC50 value less than 30 μM were deemed to be active; conditions: human AML MV-4-11 cells, 72 h; active = IC50 <30 μM
Outline: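 Exponentially growing MV-4-11 cells (5×10^4/well) were treated immediately with two-fold dilutions of compound from 30 μM to 0.2 μM, in triplicate, for 72 h at 37° C, 5% CO2. Viability was measured by MTS absorbance at 490 nm after 3–4 h. Proliferation relative to DMSO after blank correction gave IC50.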

hIL-6 mRNA = experiment: Inhibition of hIL-6 mRNA transcription in U937 cells; assay type: cell-based, human; design: key: Active: Compounds with an IC50 value less than 30 μM were deemed to be active.; Not Active: Compounds with an IC50 value less than 30 μM were deemed to be active; conditions: LPS stimulation, active = IC50 <30 μM
Outline: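 U937 cells differentiated 3 days with 60 ng/mL PMA, pretreated 1 h with compound, then stimulated with 1 ug/mL E. coli LPS for 3 h at 37° C. hIL-6 mRNA quantified by one-step qRT-PCR, Ct normalized to internal control, expressed as fold induction relative to control.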

[2] = molecular target: T1, second bromodomain of Brd2 (BRD2(2)) (Homo sapiens, UniProt P25440); experiment: Inhibition of tetra-acetylated histone H4 binding to Brd2 bromodomain 2 (TR-FRET); design: key: Active: Compounds with an IC50 value less than 30 μM were deemed to be active.; Not Active: Compounds with an IC50 value less than 30 μM were deemed to be active; conditions: tetra-acetylated histone H4 peptide, active = IC50 <30 μM
T1 construct: made in house; host or cells: E. coli BL21 (DE3)
T1 sequence (P25440 344-453 limits assumed): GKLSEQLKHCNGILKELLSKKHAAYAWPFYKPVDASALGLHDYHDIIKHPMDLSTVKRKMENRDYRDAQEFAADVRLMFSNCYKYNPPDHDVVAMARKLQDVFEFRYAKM
Outline: (§1)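 N-terminally His-tagged bromodomains (200 nM), expressed in E. coli, were incubated with biotinylated tetra-acetylated histone H4 peptide (25-50 nM), Eu-cryptate streptavidin and XL665 anti-His antibody in HEPES pH 7.4 buffer with KF, 0.2% DMSO, 2 h at room temperature. Inhibition read as decreased 665/620 nm TR-FRET; IC50 from dose-response curves.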

c-myc = experiment: Inhibition of c-myc expression in MV4-11 cells (mRNA, real-time PCR); assay type: cell-based; design: key: Active: Compounds with an IC50 value less than 30 μM were deemed to be active.; Not Active: Compounds with an IC50 value less than 30 μM were deemed to be active; conditions: Human AML MV4-11 cells, 3 h incubation
Outline: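 MV4-11 cells (2.5×10^4) treated with compound or 0.1% DMSO for 3 h at 37 °C. c-myc mRNA measured by RT real-time PCR duplexed with cyclophilin. IC50 from dose–response curve.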

[3] = molecular target: T2, Brd4 bromodomain 1 (BRD4(1)) (Homo sapiens, UniProt O60885); experiment: Inhibition of tetra-acetylated histone H4 binding to Brd4 bromodomain 1 (TR-FRET); design: key: Active: Compounds with an IC50 value less than 30 μM were deemed to be active.; Not Active: Compounds with an IC50 value less than 30 μM were deemed to be active; conditions: tetra-acetylated histone H4 peptide, active = IC50 <30 μM
T2 construct: Illustrative results with the first bromodomain of Brd4; made in house; host or cells: E. coli BL21 (DE3)
Outline: as §1

ApoA-I mRNA = experiment: Up-regulation of hApoA-1 mRNA transcription in Huh7 cells; assay type: cell-based, human; design: key: Active: Compounds with an EC170 value less than 30 μM were deemed to be active; conditions: 48 h treatment, ApoA-I mRNA by real-time PCR, Active = EC170 less than 30 μM
Protocol: In this example, ApoA-I mRNA in tissue culture cells was quantitated to measure the transcriptional up-regulation of ApoA-I when treated with a compound of the present disclosure.
Huh7 cells (2.5×10^5 per well) were plated in a 96-well plate using 100 μL DMEM per well, (Gibco DMEM supplemented with penicillin/streptomycin and 10% FBS), 24 h before the addition of the compound of interest. After 48 h treatment, the spent media was removed from the Huh-7 cells and placed on ice (for immediate use) or at −80° C. (for future use) with the “LDH cytotoxicity assay Kit II” from Abcam. The cells remaining in the plate were rinsed with 100 μL PBS.
Then 85 μL of cell lysis solution was added to each well and incubated for 5-10 min at room temperature, to allow for complete cell lysis and detachment. mRNA was then prepared using the “mRNA Catcher PLUS plate” from Life Technologies, according to the protocol supplied. After the last wash, as much wash buffer as possible was aspirated without allowing the wells to dry. Elution Buffer (E3, 80 μL) was then added to each well. mRNA was then eluted by incubating the mRNA Catcher PLUS plate with Elution Buffer for 5 min at 68° C., and then 1 min at 4° C. Catcher plates with mRNA eluted were kept on ice for use or stored at −80° C.
The eluted mRNA isolated was then used in a one-step real-time PCR reaction, using components of the Ultra Sense Kit together with Life Technologies primer-probe mixes. Real-time PCR data was analyzed, using the Ct values, to determine the fold induction of each unknown sample, relative to the control (that is, relative to the control for each independent DMSO concentration).
Compounds with an EC170 value less than 30 μM were deemed to be active.

Cc1noc(C)c1-c1ccc(=O)n(C(C)c2cccc(Cl)c2)c1 (stereo not drawn) [Example 113, 1-(1-(3-Chlorophenyl)ethyl)-5-(3,5-dimethylisoxazol-4-yl)pyridin-2(1H)-one]
Active: Cell Proliferation activity (IC50 <30 μM) [1] | IL-6 activity (IC50 <30 μM) (hIL-6 mRNA) | FRET activity (IC50 <30 μM) BRD2(2) [2] | c-myc activity (IC50 <30 μM) (c-myc) | FRET activity (IC50 <30 μM) BRD4(1) [3]

COc1cc(-c2ccc(=O)n(Cc3ccc(C(C)(C)C)cc3)n2)cc(OC)c1OC [Example 120, 2-(4-(tert-Butyl)benzyl)-6-(3,4,5-trimethoxyphenyl)pyridazin-3(2H)-one]
Not Active: IL-6 activity (IC50 <30 μM) (hIL-6 mRNA) | c-myc activity (IC50 <30 μM) (c-myc)
Active: Cell Proliferation activity (IC50 <30 μM) [1] | FRET activity (IC50 <30 μM) BRD2(2) [2] | FRET activity (IC50 <30 μM) BRD4(1) [3]

Cc1cccc(Cn2cc(-c3c(C)noc3C)ccc2=O)c1 [Example 122, 5-(3,5-Dimethylisoxazol-4-yl)-1-(3-methylbenzyl)pyridin-2(1H)-one]
Active: Cell Proliferation activity (IC50 <30 μM) [1] | IL-6 activity (IC50 <30 μM) (hIL-6 mRNA) | FRET activity (IC50 <30 μM) BRD2(2) [2] | c-myc activity (IC50 <30 μM) (c-myc) | FRET activity (IC50 <30 μM) BRD4(1) [3]

Cc1noc(C)c1-c1ccc(=O)n(Cc2ccccc2C(F)(F)F)c1 [Example 123, 5-(3,5-Dimethylisoxazol-4-yl)-1-(2-(trifluoromethyl)benzyl)pyridin-2(1H)-one]
Active: Cell Proliferation activity (IC50 <30 μM) [1] | IL-6 activity (IC50 <30 μM) (hIL-6 mRNA) | FRET activity (IC50 <30 μM) BRD2(2) [2] | c-myc activity (IC50 <30 μM) (c-myc) | FRET activity (IC50 <30 μM) BRD4(1) [3]

Cc1noc(C)c1-c1ccc(=O)n(C(C)c2ccccc2F)c1 (stereo not drawn) [Example 124, 5-(3,5-Dimethylisoxazol-4-yl)-1-(1-(2-fluorophenyl)ethyl)pyridin-2(1H)-one]
Active: Cell Proliferation activity (IC50 <30 μM) [1] | IL-6 activity (IC50 <30 μM) (hIL-6 mRNA) | FRET activity (IC50 <30 μM) BRD2(2) [2] | c-myc activity (IC50 <30 μM) (c-myc) | FRET activity (IC50 <30 μM) BRD4(1) [3]

Cc1noc(C)c1-c1ccc(=O)n(Cc2cccc(Cl)c2)c1 [Example 126, 1-(3-Chlorobenzyl)-5-(3,5-dimethylisoxazol-4-yl)pyridin-2(1H)-one]
Active: Cell Proliferation activity (IC50 <30 μM) [1] | IL-6 activity (IC50 <30 μM) (hIL-6 mRNA) | FRET activity (IC50 <30 μM) BRD2(2) [2] | c-myc activity (IC50 <30 μM) (c-myc) | FRET activity (IC50 <30 μM) BRD4(1) [3]

Cc1noc(C)c1-c1ccc(=O)n(Cc2ccccc2Cl)c1 [Example 127, 1-(2-Chlorobenzyl)-5-(3,5-dimethylisoxazol-4-yl)pyridin-2(1H)-one]
Active: Cell Proliferation activity (IC50 <30 μM) [1] | IL-6 activity (IC50 <30 μM) (hIL-6 mRNA) | FRET activity (IC50 <30 μM) BRD2(2) [2] | c-myc activity (IC50 <30 μM) (c-myc) | FRET activity (IC50 <30 μM) BRD4(1) [3]

Cc1noc(C)c1-c1ccc(=O)n([C@@H](C)c2ccccc2)c1 [Example 133, (S)-5-(3,5-Dimethylisoxazol-4-yl)-1-(1-phenylethyl)pyridin-2(1H)-one]
Active: FRET activity (IC50 <30 μM) BRD2(2) [2] | c-myc activity (IC50 <30 μM) (c-myc) | FRET activity (IC50 <30 μM) BRD4(1) [3]
Not Active: Cell Proliferation activity (IC50 <30 μM) [1] | IL-6 activity (IC50 <30 μM) (hIL-6 mRNA)

Cc1noc(C)c1-c1ccc(=O)n(Cc2ccc(Cl)cc2Cl)c1 [Example 136, 1-(2,4-Dichlorobenzyl)-5-(3,5-dimethylisoxazol-4-yl)pyridin-2(1H)-one]
Active: Cell Proliferation activity (IC50 <30 μM) [1] | IL-6 activity (IC50 <30 μM) (hIL-6 mRNA) | FRET activity (IC50 <30 μM) BRD2(2) [2] | c-myc activity (IC50 <30 μM) (c-myc) | FRET activity (IC50 <30 μM) BRD4(1) [3]

Cc1noc(C)c1-c1ccc(=O)n(Cc2ccc(C#N)cc2)c1 [Example 137, 4-((5-(3,5-Dimethylisoxazol-4-yl)-2-oxopyridin-1(2H)-yl)methyl)benzonitrile]
Active: Cell Proliferation activity (IC50 <30 μM) [1] | IL-6 activity (IC50 <30 μM) (hIL-6 mRNA) | FRET activity (IC50 <30 μM) BRD2(2) [2] | c-myc activity (IC50 <30 μM) (c-myc) | FRET activity (IC50 <30 μM) BRD4(1) [3]

Cc1noc(C)c1-c1ccc(=O)n(Cc2cc(F)c(F)c(F)c2)c1 [Example 142, 5-(3,5-Dimethylisoxazol-4-yl)-1-(3,4,5-trifluorobenzyl)pyridin-2(1H)-one]
Active: Cell Proliferation activity (IC50 <30 μM) [1] | IL-6 activity (IC50 <30 μM) (hIL-6 mRNA) | FRET activity (IC50 <30 μM) BRD2(2) [2] | c-myc activity (IC50 <30 μM) (c-myc) | FRET activity (IC50 <30 μM) BRD4(1) [3]

Cc1onc(N)c1-c1ccc(=O)n(Cc2ccccc2)c1 [Example 151, 5-(3-Amino-5-methylisoxazol-4-yl)-1-benzylpyridin-2(1H)-one]
Active: Cell Proliferation activity (IC50 <30 μM) [1] | IL-6 activity (IC50 <30 μM) (hIL-6 mRNA) | FRET activity (IC50 <30 μM) BRD2(2) [2] | FRET activity (IC50 <30 μM) BRD4(1) [3]
Not Active: c-myc activity (IC50 <30 μM) (c-myc)

Cc1noc(C)c1-c1ccc(=O)n(Cc2ccc(Cl)c(Cl)c2)c1 [Example 155, 1-(3,4-Dichlorobenzyl)-5-(3,5-dimethylisoxazol-4-yl)pyridin-2(1H)-one]
Active: ApoA-1 activity (EC170 <30 μM) (ApoA-I mRNA) | FRET activity (IC50 <30 μM) BRD4(1) [3]

Cc1noc(C)c1-c1cc(Nc2cccc(F)c2)c(=O)n(Cc2ccccc2)c1 [Example 157, 1-Benzyl-5-(3,5-dimethylisoxazol-4-yl)-3-((3-fluorophenyl)amino)pyridin-2(1H)-one]
Active: ApoA-1 activity (EC170 <30 μM) (ApoA-I mRNA) | FRET activity (IC50 <30 μM) BRD4(1) [3]

COc1ccc(-c2nn(Cc3ccccc3)c(=O)c3ccccc23)c(O)c1OC [Example 164, 2-Benzyl-4-(2-hydroxy-3,4-dimethoxyphenyl)phthalazin-1(2H)-one]
Active: Cell Proliferation activity (IC50 <30 μM) [1] | FRET activity (IC50 <30 μM) BRD2(2) [2] | FRET activity (IC50 <30 μM) BRD4(1) [3]
Not Active: IL-6 activity (IC50 <30 μM) (hIL-6 mRNA) | c-myc activity (IC50 <30 μM) (c-myc)
